From patent US11612605B2, “(+)-azasetron for use in the treatment of ear disorders” (SENSORION, priority 2016, dated 2023)

Test system: SSNHL after acoustic trauma
Assay: SSNHL model: acoustic trauma (120 dB octave band noise), ABR and DPOAE audiometry
Format: in vivo, male Wistar rats
Experimental: All experiments were performed using 7-week-old male Wistar rats (CERJ, Le Genest, France) in accordance with the French Ministry of Agriculture regulations and European Community Council Directive no. 86/609/EEC, OJL 358. The rats were fed a standard diet ad libitum and maintained on a 12 hours' light-dark cycle.
Auditory Brainstem Reponses (ABR) and Distortion Product Otoacoustic Emissions (DPOAE) were recording using a RZ6 Auditory Workstation (Tucker-Davis Technologies, Alachua, Fla., USA) with animals deeply anesthetized using 90 mg/kg ketamine and 10 mg/kg xylazine and placed on a 35° C. recirculating heating pad inside a sound attenuating cubicle (Med Associates Inc., St. Albans, Vt., USA) throughout the experiment.
For ABR recordings, three stainless steel needle electrodes were placed subdermally over the vertex, the right mastoid and right hind leg of each animal. Tone-pips (5 msec duration presented at a rate of 21/s) at 8, 16 and 24 kHz were delivered to the right ear using a calibrated MF-1 speaker in closed-field configuration (Tucker-Davis Technologies, Alachua, Fla., USA) at attenuating intensity until no reproducible response could be recorded. Close to the ABR threshold, the responses to 1000 acoustic stimuli in 5 dB steps were averaged. Responses were low-pass filtered at 3 kHz.
DPOAEs were recorded and using ER10B+ Low Noise DPOAE microphone (Etymotic Research, Inc., Elk Grove Village, Ill., USA) with acoustic stimuli delivered by two calibrated MF-1 speakers in closed-field configuration (Tucker-Davis Technologies, Alachua, Fla., USA). DPOAEs were recorded at fixed stimulus levels (L1=L2=70 dB SPL), with an f2/f1 ratio of 1.2. Responses were recorded at 4, 8, 16, 24 and 32 kHz.
Animals were exposed to 120 dB octave band noise (8-16 kHz) for 2 hours in groups of 4 rats, placed in individual compartments of a custom built circular cage placed on a 30-cm diameter platform rotating at 3 turns/minute (Aqila Innovation, Valbonne, France). The calibrated octave band noise generated by the RZ6 SigGen software was further amplified by a Crown D-75 amplifier in bridge mode (Crown Audio, Elkhart, Ind., USA) and delivered by four Beyma CPI6 compression tweeters (Acustica Beyma S. L., Moncada, Valencia, Spain) positioned 39 cm above the rotating platform, each 10 cm from the platform center.
The ability of the racemic and two enantiomers of azasetron hydrochloride to reduce SSNHL after acoustic trauma was evaluated in a randomized, vehicle-controlled study with 7 weeks old male Wistar rats. Rats were randomized to receive 4.22 mg/kg of the racemic, two enantiomers of azasetron or vehicle control (physiological saline) by intraperitoneal injection immediately after acoustic trauma, followed by daily dosing for a total of 14 days. Two days prior to acoustic trauma, baseline audiometric readings using auditory brainstem response (ABR) (8, 16, and 24 kHz) were recorded for each animal. Animals were exposed to 120-dB octave-band noise (8-16 kHz) for 2 hours to induce acoustic trauma.
The ability of the (+)-enantiomer of azasetron hydrochloride to reduce SSNHL after acoustic trauma was evaluated in a randomized, vehicle-controlled study in male Wistar rats, 7 weeks of age. Rats were randomized to receive 5, 10, or 20 mg/kg of the (+)-enantiomer of azasetron hydrochloride or vehicle control (physiological saline) by oral gavage immediately after acoustic trauma, followed by daily dosing for a total of 14 days. Two days prior to acoustic trauma, baseline audiometric readings using auditory brainstem response (ABR) (8, 16, and 24 kHz) and distortion-product otoacoustic emissions (DPOAE) (4, 8, 16, 24, and 32 kHz) were recorded for each animal. Post-trauma audiometry recordings were conducted at 14 days.
The ability of the racemic azasetron hydrochloride by oral administration to reduce SSNHL after acoustic trauma was also evaluated. […]

[1] = 10 mg/kg oral gavage daily 14 days, baseline to day 14
[2] = 20 mg/kg oral gavage daily 14 days, baseline to day 14
[3] = 10 mg/kg oral gavage daily 14 days after acoustic trauma

SMILES | ABR threshold shifts compared with racemic azasetron, (−)-enantiomer and vehicle (4.22 mg/kg intraperitoneal, daily for 14 days after acoustic trauma, 8, 16, 24 kHz) | mean improvement in hearing (ABR) [1] | mean reduction of ABR threshold shifts [1] | mean improvement in hearing (ABR) [2] | mean reduction of ABR threshold shifts [2] | mean reduction of DPOAE amplitude loss [2] | reduction of hearing loss (average) by ASLHA criteria versus vehicle control (10- and 20-mg/kg oral doses) | protective effect on ABR thresholds [3] | protective effect on DPOAE amplitude loss [3]
CN1C(=O)COc2c(C(=O)N[C@H]3CN4CCC3CC4)cc(Cl)cc21 [(+)-azasetron] | reduced ABR threshold shifts more than racemic azasetron or (−)-enantiomer | 22.3 dB | 35.1% | 19.4 dB | 30.5% | 51.2% | from moderately severe (56 to 70 dB) to mild/moderate (26 to 40 dB/41 to 55 dB) | – | –
CN1C(=O)COc2c(C(=O)NC3CN4CCC3CC4)cc(Cl)cc21 (racemic) [Racemic azasetron, N-(1-azabicyclo[2.2.2]octan-8-yl)-6-chloro-4-methyl-3-oxo-1,4-benzoxazine-8-carboxamide] | – | – | – | – | – | – | – | small tendency towards a protective effect | small tendency towards a protective effect
